Patent US4122184A, “Benzimidazole insecticides” (priority 1977, dated 1978)

How the values were obtained:
Southern armyworm larvae = settings: 250 ppm; cited from earlier work
milkweed bugs = settings: 250 ppm; cited from earlier work
oriental roaches = settings: 250 ppm; cited from earlier work
boll weevils = settings: 250 ppm; cited from earlier work
house flies = settings: 1000 ppm; cited from earlier work
Two-spotted Spider Mite = Two-spotted Spider Mite test; type: in vivo, Tetranychus urticae (Acarina); settings: 48 h
Experimental: The procedure in this test is the same as that in the previous aphid test, except that about 100 two-spotted spider mites from a stock colony raised on squash plants are transferred to a cut squash cotyledon. The mortality is estimated 48 hours after spraying. The same rating scale is used.

Milkweed Bug = Milkweed Bug Test; type: in vivo, Oncopeltis fasciatus (Hemiptera); settings: 100 ppm, 48 h
Experimental: Ten adult milkweed bugs are chilled and placed in a test cage. The cages containing the bugs are sprayed with 5 ml. of a test formulation containing a pre-determined amount of the insecticide, using a DeVilbiss atomizer at 10 psi held 33 inches from the top of the cage. After the cage has been allowed to dry, the bugs are fed and watered for 48 hours. A formulation containing 500 ppm of malathion is used as a reference standard and two unsprayed cages are kept as controls. Mortality counts are made 48 hours after spraying. Moribund adults are considered dead. The same rating scale is employed as before.

Boll Weevil [1] = experiment: Boll Weevil Test; type: in vivo, Anthonomus grandis (Coleoptera); settings: 48 h
Excerpt: The procedure is identical to that employed for the Mexican bean beetle and the Southern armyworm, except that 10 adult boll weevils are placed on cotton leaves that have been dipped into formulations of the test compounds. The same rating scale is used.

Alfalfa Weevil Larvae [2] = experiment: Field trial, stomach poison test; type: in vivo
Experimental: (§1) Leaves from the infested plant are treated with different concentrations of the test compounds, either by spraying with a DeVilbiss Special Atomizer (5004) at 10 psi or by dipping the leaves in solutions containing the compound. The leaves are then allowed to air dry.
(§2) After the leaves have dryed, they are placed in plastic petri dishes (100 × 25 mm), then the insects are counted out into each dish, five or ten insects per dish depending on the number of insects available. There are one or two replicates and usually two or three rates with each compound. Mortality results are taken at 24, 48 and 72 hours. The rating scale is 0 to 9.
(§3) Using the above methods, field trials were carried out against species of 5 orders of insects. The results, which are summarized in the following tables, give the average mortality for the particular insect with a given benzimidazole for each concentration employed. […] These tables contain all results obtained during the summer trials.

Meadow Spittlebug = experiment: Field trial, stomach poison test; type: in vivo
Experimental: as §1, §2, §3

[3] = test system: Potato Flea Beetle Adults; experiment: Field trial, stomach poison test; type: in vivo
Experimental: as §1, §2, §3

[4] = test system: Southern Corn Rootworm Adults; experiment: Field trial, stomach poison test; type: in vivo; design: key: mortality rating on a 0 to 9 scale
Experimental: as §1, §2, §3

[5] = test system: Striped Cucumber Beetle Adults; experiment: Field trial, stomach poison test; type: in vivo; design: key: mortality rating on a 0 to 9 scale
Experimental: as §1, §2, §3

[6] = test system: Tarnished Plant Bug Adults; experiment: Field trial, stomach poison test; type: in vivo; design: key: mortality rating on a 0 to 9 scale
Experimental: as §1, §2, §3

[7] = test system: Unidentified Green Leafhopper; experiment: Field trial, stomach poison test; type: in vivo; design: key: mortality rating on a 0 to 9 scale
Experimental: as §1, §2, §3

Squash Bug Adults = experiment: Field trial, contact poison test; type: in vivo; design: key: 0-9 rating: 0 = 0-10% mortality, 9 = 91-100% mortality
Excerpt: (§4) Infested plants are placed in 6 oz. prescription bottles filled with water to keep them from wilting. Cellucotton is wrapped around the plant stem and squeezed into the bottle neck to prevent the insects from drowning.
(§5) A DeVilbiss Special Atomizer (5004) is used at 10 psi to spray the test plant with different concentrations of compounds. The atomizer is held at arm's length to prevent blowing the insects off the host plant. After treating, the bottles are placed on a table covered with brown wrapping paper to catch the dead insects as they drop from the plant. The plants are spaced so the leaves or plants are not touching one another.
(§6) The results are read at 24, 48, and 72 hours when applicable. The rating scale is 0 to 9 where 0 = 0-10 percent and 9 = 91-100 percent mortality.
as §3

Mosquito Larvae = experiment: Mosquito larvae test (dip test); type: in vivo, Aedes aegypti; settings: 48 h
Experimental: Aedes aegypti larvae 5 days old are allowed to feed on fresh food for at least 3 hours previous to being placed on test. Larvae are then removed from the rearing pans by pouring on a 20 mesh screen, washing with deionized water, and pooling in a 6-inch white enameled sauce pan.
Twenty larvae are placed in a 1 oz. paper cup containing 25 ml. of deionized water.
Test chemicals are dissolved in a suitable solvent and pipetted under the surface of 225 ml. of deionized water in one pint wide-mouthed Mason jar test containers and stirred. A cup containing 20 larvae in 25 ml. of water is then added. […]
Results are determined 48 hours later by counting the dead and moribund larvae. […] Moribund larvae are those that are capable of limited, or poorly coordinated, locomotion in a sluggish manner.
Live larvae respond normally and actively.

Alfalfa Weevil Larvae [8] = experiment: Field trial, contact poison test; type: in vivo
Excerpt: as §4, §5, §6, §3

[9] = test system: Potato Flea Beetle Adults; experiment: Field trial, contact poison test; type: in vivo
Excerpt: as §4, §5, §6, §3

[10] = test system: Southern Corn Rootworm Adults; experiment: Field trial, contact poison test; type: in vivo
Excerpt: as §4, §5, §6, §3

Alfalfa Weevil Larvae [11] = experiment: Field trial, topical application; type: in vivo
Experimental: as §6
(§7) In a variation of the above test, 1 microliter of a test solution containing a predetermined number of micrograms of benzimidazole was applied directly to larvae or adult insects.
as §3

Yellow Mealworm Larvae = experiment: Field trial, topical application; type: in vivo; design: key: 0 = 0-10% mortality, 9 = 91-100% mortality (0-9 scale)
Experimental: as §6, §7, §3

Boll Weevil [12] = experiment: Field trial (first summer), topical; type: in vivo, Anthonomus grandis; settings: .078125 μg/μl
Experimental: as §7
(§8) During the previous summer similar field trials were conducted employing the same tests as heretofore but with some additional species of insects not included in the later tests. The results listed below are for tests in which an insect mortality was established by a given application route and at a given concentration in a particular test. The same 0 - 9 scoring system is used as is the designation of compounds by alphabetical symbols.

Mexican Bean Beetle = experiment: Field trial (first summer), topical; type: in vivo, Epilachna varivestis; settings: .25 μg/μl
Experimental: as §7, §8

Confused Flour Beetle = experiment: Field trial (first summer), topical; type: in vivo; settings: .078125 μg/μl
Experimental: as §7, §8

Asparagus Beetles Adults [13] = experiment: Field trial, stomach poison test; type: in vivo
Experimental: as §1, §2, §3

Asparagus Beetles Adults [14] = experiment: Field trial, contact poison test; type: in vivo
Excerpt: as §4, §5, §6, §3

Picnic Beetle [15] = experiment: Field trial (first summer), topical; type: in vivo; settings: .078125 μg/μl
Experimental: as §7, §8

Picnic Beetle [16] = experiment: Field trial (first summer), stomach; type: in vivo; settings: 250 ppm
Experimental: as §1, §2, §8

Milkweed Beetle = experiment: Field trial (first summer), contact; type: in vivo; settings: 125 ppm
Excerpt: as §4, §5, §6, §8

Picnic Beetle [17] = experiment: Field trial (first summer), contact; type: in vivo; settings: 250 ppm
Excerpt: as §4, §5, §6, §8

Q: Which results are given for `FC(F)(F)c1nc2ccc(Cl)c(Cl)c2[nH]1` [2-trifluoromethyl-4,5-dichlorobenzimidazole]?
A: insecticidal activity (Southern armyworm larvae): complete kill; insecticidal activity (milkweed bugs): without action; insecticidal activity (oriental roaches): without action; insecticidal activity (boll weevils): without action; insecticidal activity (house flies): excellent only at 1000 ppm

Q: What does the source list for `O=[N+]([O-])c1cc(C(F)(F)F)cc2c1nc(C(F)(F)F)n2S(=O)(=O)c1ccccc1` [F, 2,6-bis(trifluoromethyl)-4-nitro-1-phenylsulfonylbenzimidazole]?
A: mortality rating (Two-spotted Spider Mite; 1 ppm): 6.3; mortality rating (Two-spotted Spider Mite; 5 ppm): 7.5; mortality rating (Two-spotted Spider Mite; 10 ppm): 6.8; mortality rating (Milkweed Bug): 7.5; mortality rating (Boll Weevil [1]; 25 ppm): 7.5; mortality rating (Boll Weevil [1]; 50 ppm): 6.5; mortality rating (Boll Weevil [1]; 250 ppm): 8.5; average mortality rating (Alfalfa Weevil Larvae [2]; 125 ppm): 1; average mortality rating (Alfalfa Weevil Larvae [2]; 250 ppm): 2; average mortality rating (Alfalfa Weevil Larvae [2]; 500 ppm): 7; average mortality rating (Meadow Spittlebug; 10 ppm): 0 (0-10 percent); average mortality rating (Meadow Spittlebug; 25 ppm): 1; average mortality rating (Meadow Spittlebug; 50 ppm): 7; average mortality rating ([3]; 10 ppm): 9 (91-100 percent mortality); average mortality rating ([3]; 25 ppm): 9 (91-100 percent mortality); average mortality rating ([3]; 50 ppm): 9 (91-100 percent mortality); average mortality rating ([4]; 25 ppm): 3; average mortality rating ([4]; 50 ppm): 4; average mortality rating ([4]; 100 ppm): 5; average mortality rating ([5]; 10 ppm): 0 (0-10 percent); average mortality rating ([5]; 25 ppm): 3; average mortality rating ([5]; 50 ppm): 3; average mortality rating ([6]; 10 ppm): 4; average mortality rating ([6]; 25 ppm): 4; average mortality rating ([6]; 50 ppm): 2; average mortality rating ([7]; 10 ppm): 1; average mortality rating ([7]; 25 ppm): 1; average mortality rating ([7]; 50 ppm): 7; average mortality rating (Squash Bug Adults; 125 ppm): 0 (0-10 percent); average mortality rating (Squash Bug Adults; 250 ppm): 4; average mortality rating (Squash Bug Adults; 500 ppm): 7; average mortality rating (Squash Bug Adults; 750 ppm): 9 (91-100 percent mortality); average mortality rating (Mosquito Larvae; 0.010 ppm): 8 (85-90%); average mortality rating (Mosquito Larvae; 0.025 ppm): 5 (55-60%); average mortality rating (Mosquito Larvae; 0.05 ppm): 8 (85-90%); average mortality rating (Mosquito Larvae; 0.1 ppm): 9 (95-100%); average mortality rating (Alfalfa Weevil Larvae [8]; 500 ppm): 8; average mortality rating (Alfalfa Weevil Larvae [8]; 750 ppm): 8; average mortality rating (Alfalfa Weevil Larvae [8]; 1000 ppm): 8; average mortality rating ([9]; 10 ppm): 8; average mortality rating ([9]; 25 ppm): 8; average mortality rating ([9]; 50 ppm): 9 (91-100 percent mortality); average mortality rating ([10]; 25 ppm): 2; average mortality rating ([10]; 50 ppm): 5; average mortality rating ([10]; 100 ppm): 9 (91-100 percent mortality); average mortality rating (Alfalfa Weevil Larvae [11]; 0.03 μg/μl): 1; average mortality rating (Alfalfa Weevil Larvae [11]; 0.07 μg/μl): 1; average mortality rating (Alfalfa Weevil Larvae [11]; 0.1 μg/μl): 3; average mortality rating (Yellow Mealworm Larvae; 0.03 μg/μl): 2; average mortality rating (Yellow Mealworm Larvae; 0.07 μg/μl): 3; average mortality rating (Yellow Mealworm Larvae; 0.15 μg/μl): 5; insect mortality rating (Boll Weevil [12]): 9 (91-100 percent mortality); insect mortality rating (Mexican Bean Beetle): 9 (91-100 percent mortality); insect mortality rating (Confused Flour Beetle): 9 (91-100 percent mortality)

Q: With `CCN(CC)C(=O)n1c(SC(F)(F)F)nc2c([N+](=O)[O-])cc(SC(F)(F)F)cc21` [S, n,n-diethyl-4-nitro-2,6-bis(trifluoromethyl)thio-1-benzimidazolecarboxamide] as the compound, how does the average mortality rating (Asparagus Beetles Adults [13]; 5 ppm) read?
A: The average mortality rating was 7.

Q: And the average mortality rating (Asparagus Beetles Adults [13]; 10 ppm)?
A: Its average mortality rating is 7.

Q: What about the average mortality rating (Asparagus Beetles Adults [13]; 25 ppm) of the same compound?
A: Its average mortality rating is 9 (91-100 percent mortality).

Q: And the average mortality rating ([3]; 10 ppm)?
A: Its average mortality rating is 3.

Q: What about the average mortality rating ([3]; 25 ppm) of the same compound?
A: Its average mortality rating is 7.

Q: And the average mortality rating ([3]; 50 ppm)?
A: Its average mortality rating is 9 (91-100 percent mortality).

Q: What about the average mortality rating ([6]; 25 ppm) of the same compound?
A: Its average mortality rating is 5.

Q: And the average mortality rating ([7]; 10 ppm)?
A: The average mortality rating was 3.

Q: And the average mortality rating ([7]; 25 ppm)?
A: The average mortality rating was 0 (0-10 percent).

Q: What about the average mortality rating ([7]; 50 ppm) of the same compound?
A: The average mortality rating was 0 (0-10 percent).

Q: What about the average mortality rating (Mosquito Larvae; 0.010 ppm) of the same compound?
A: Its average mortality rating is 4 (45-50%).

Q: What about the average mortality rating (Mosquito Larvae; 0.025 ppm) of the same compound?
A: The average mortality rating was 5 (55-60%).

Q: What about the average mortality rating (Mosquito Larvae; 0.05 ppm) of the same compound?
A: The average mortality rating was 5 (55-60%).

Q: What about the average mortality rating (Mosquito Larvae; 0.1 ppm) of the same compound?
A: Its average mortality rating is 9 (95-100%).

Q: What about the average mortality rating (Asparagus Beetles Adults [14]; 10 ppm) of the same compound?
A: Its average mortality rating is 0 (0-10 percent).

Q: And the average mortality rating (Asparagus Beetles Adults [14]; 25 ppm)?
A: The average mortality rating was 8.

Q: What about the average mortality rating (Asparagus Beetles Adults [14]; 50 ppm) of the same compound?
A: The average mortality rating was 5.

Q: And the average mortality rating ([9]; 10 ppm)?
A: The average mortality rating was 5.

Q: And the average mortality rating ([9]; 25 ppm)?
A: The average mortality rating was 8.

Q: What about the average mortality rating ([9]; 50 ppm) of the same compound?
A: Its average mortality rating is 9 (91-100 percent mortality).

Q: What about the average mortality rating (Yellow Mealworm Larvae; 0.03 μg/μl) of the same compound?
A: Its average mortality rating is 2.

Q: What about the average mortality rating (Yellow Mealworm Larvae; 0.07 μg/μl) of the same compound?
A: Its average mortality rating is 4.

Q: And the average mortality rating (Yellow Mealworm Larvae; 0.15 μg/μl)?
A: The average mortality rating was 4.

Q: And the insect mortality rating (Picnic Beetle [15])?
A: The insect mortality rating was 9 (91-100 percent mortality).

Q: What about the insect mortality rating (Picnic Beetle [16]) of the same compound?
A: Its insect mortality rating is 9 (91-100 percent mortality).

Q: What about the insect mortality rating (Milkweed Beetle) of the same compound?
A: The insect mortality rating was 9 (91-100 percent mortality).

Q: And the insect mortality rating (Picnic Beetle [17])?
A: The insect mortality rating was 9 (91-100 percent mortality).
